Patent US9474759B2 (priority 2011, dated 2016)
Like-named read-outs stand apart in the source and are kept apart here.

Columns and labels:
FIPV-1146 [1] = assay: Combination treatment of CA074-Me and GC373 on FIPV-1146 replication, MacSynergy II; format: cell-based, feline coronavirus; conditions: CA074-Me alone at 1, FIPV-infected CRFK cells
Procedure: The CRFK cells were incubated with GC373 (0.02˜0.2 μM), CA074-Me (0.5˜5 μM), or the combinations of GC373 (0.02˜0.2 μM) and CA074-Me (0.5˜5 μM) for 1 hr at 37° C. prior to inoculation of FIPV-1146 at an MOI of 0.05. After 24 hrs of incubation, virus replication was assessed with virus titration using the TCID50 method. Drug-drug interactions were analyzed by the three-dimensional model of Prichard and Shipman, using the MacSynergy II software at 95% confidence limits. Theoretical additive interactions were calculated from the dose-response curve for each compound individually, and the calculated additive surface was subtracted from the experimentally determined dose-response surface to give regions of synergistic or antagonistic interactions. The resulting surface appears as horizontal plane at 0% of synergy if the interactions of two compounds are additive. Any peak above or below this plane indicates synergy or antagonism, respectively.

FECV-1683 = FECV-1683 replication in CRFK cells, TCID50 method; format: cell-based, feline coronavirus; conditions: MOI 0.05, mean ± SEM
Procedure: (§1) Crandell Rees feline kidney (CRFK) cells were maintained in minimal essential medium containing 2-5% fetal bovine serum and antibiotics (chlortetracycline [25 μg/ml], penicillin [250 U/ml], and streptomycin [250 μg/ml]). FIPV WSU 79-1146 and FECV WSU 79-1683 strains are the prototypes of serotype II FIPV or FECV, respectively, and were purchased from ATCC (Manassas, Va.).
(§2) The cells were further incubated in the presence of each compound for 1 hr at 37° C. Then […] or FECV-1683 was inoculated to the cells at a multiplicity of infection (MOI) of 0.05 or 5.
(§3) b. TCID50 Method. A standard TCID50 method with the 10-fold dilution of each sample was used for virus titration.

FIPV-1146 [2] = assay: FIPV-1146 replication in CRFK cells, TCID50 method; format: cell-based, feline coronavirus; conditions: MOI 0.05, mean ± SEM
Procedure: as §1, §2, §3

[3] = tested on: norovirus (cell-based replicon system); assay: Cell-based replicon system of norovirus (Example 4)
[4] = target: Norwalk virus 3CL protease (NV3CL protease), recombinant (Norovirus, UniProt Q83883); assay: Recombinant NV protease FRET inhibition assay (Edans-[…]-Dabcyl substrate), FIG. 4; format: biochemical; conditions: 2.5 μM enzyme, 300 nM Edans-EPDFHLQGPEDLAK-Dabcyl, 30 min incubation, 30° C., pH 8.0
Sequence of Norwalk virus 3CL protease (NV3CL protease), recombinant (Q83883 1101-1281): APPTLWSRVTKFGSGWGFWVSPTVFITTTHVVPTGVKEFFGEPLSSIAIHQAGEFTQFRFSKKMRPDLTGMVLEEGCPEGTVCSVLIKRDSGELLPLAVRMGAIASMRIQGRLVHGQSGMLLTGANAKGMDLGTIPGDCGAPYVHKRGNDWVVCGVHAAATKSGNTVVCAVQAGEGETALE
Procedure: (§4) After a 30 minute incubation period, 5 μL of 12 μM Edans-[…]-Dabcyl (SEQ ID NO:1) substrate in DMSO was then added and the increase in fluorescence was monitored for 30 minutes at an excitation and emission wavelength of 360 and 460 nm, respectively. Using a HORIBA FluoroMax 4 spectrofluorometer. Hydrolysis curves were linear. The final enzyme and substrate concentrations were 2.5 μM and 300 nM, respectively. […] Furthermore, the nature of the cap was also important (compare, for example, inhibitors A and D).

[5] = target: Norwalk virus 3CL protease (Norovirus, UniProt Q83883); assay: Recombinant NV protease fluorogenic substrate inhibition assay (Example 1); format: biochemical; conditions: 30 min pre-incubation, 30° C., pH 8.0
Sequence of Norwalk virus 3CL protease (Q83883 1101-1281): as above
Procedure: as §4

[6] = tested on: norovirus (NV replicon-harboring HG23 cells); assay: NV replicon-harboring cells (HG23), NV genome levels by qRT-PCR (Example 1); format: cell-based, Norwalk virus; conditions: read-out: ED50, effective dose that inhibits 50% of norovirus replication, NV genome levels at 24 hrs post-treatment
[7] = tested on: murine norovirus-1 (MNV-1); assay: MNV-1 replication in RAW267.4 cells, TCID50 (Example 1); format: cell-based; conditions: Norwalk virus, MOI 2, TCID50 assay, read-out: ED50, replication of murine norovirus (MNV)
HG23 cells = conditions: human
[8] = tested on: coronavirus proteases (TGEV and SARS-CoV); format: biochemical; conditions: optimized FRET assay
MNV-1 = assay: Cell culture system, MNV-1 replication in RAW267.4 cells (Example 3); format: cell-based, murine norovirus; conditions: at concentrations up to 50 μM or 100 μM
MHV = assay: Cell culture system, MHV replication in CCL-9.1 cells (Example 3); format: cell-based, mouse hepatitis virus; conditions: at concentrations up to 50 μM or 100 μM
FCV = assay: Cell culture system, FCV replication in CRFK cells (Example 3); format: cell-based, feline calicivirus; conditions: at concentrations up to 50 μM or 100 μM
[9] = tested on: cells used for virus replication; assay: Non-specific cytotoxicity in the cells used for virus replication (Example 3); format: cell-based
Procedure: Confluent cells grown in 96-well plates were treated with various concentrations (1 to 500 μM) of each compound for 72 h. Cell cytotoxicity was measured by a CytoTox 96® nonradioactive cytotoxicity assay kit (Promega, Madison, Wis.) and crystal violet staining. The In vitro therapeutic index was calculated by dividing the TD50 by the IC50.

[10] = 24 hr post infection, read-out: Inhibition [ED50 (μM)] against FECV-1683, 24 hrs
[11] = 48 hr post infection, read-out: Inhibition [ED50 (μM)] against FECV-1683, 48 hrs
[12] = 24 hr post infection, read-out: Inhibition [ED50 (μM)] against FIPV-1146, 24 hrs
[13] = 48 hr post infection, read-out: Inhibition [ED50 (μM)] against FIPV-1146, 48 hrs

In the case of `CCCNC(=O)[C@H]1O[C@@H]1C(=O)N[C@H](C(=O)N1CCC[C@H]1C(=O)OC)[C@@H](C)CC` (relative stereo) [CA074-Me, L-3-trans-((propylcarbamyl)oxirane-2-Carbonyl)-L-isoleucyl-L-proline methyl ester, reference compound], the “reduction of virus titers” value (FIPV-1146 [1]) is reported as 0.5 log10, the EC50 (FECV-1683; [10]) is reported as 4 ± 0.71 µM and the EC50 (FECV-1683; [11]) is reported as > 10 µM. The EC50 (FIPV-1146 [2]; [12]) was 2.5 ± 1.4 µM and the EC50 (FIPV-1146 [2]; [13]) was > 10 µM.

With `CCOC(=O)[C@H]1O[C@@H]1C(=O)N[C@@H](CC(C)C)C(=O)NCCC(C)C` (relative stereo) [Inhibitor E64d, (2S,3S)-trans-epoxysuccinyl-L-leucylamido-3-methylbutane ethyl ester, reference compound] the EC50 (FECV-1683; [10]) was 2.3 ± 0.28 µM, the EC50 (FECV-1683; [11]) was > 10 µM and the EC50 (FIPV-1146 [2]; [12]) was 1.45 ± 0.49 µM. The EC50 (FIPV-1146 [2]; [13]) was > 10 µM.

`CC(C)C[C@H](NC(=O)OCc1ccccc1)C(=O)N[C@@H](CC1CCNC1=O)C(O)C(=O)NC(C)C` (stereo partly drawn) [Inhibitor 5a] was tested, and the “anti-norovirus activity in the cell-based replicon system (in words)” value (“anti-norovirus activity” for short) [3] was “noteworthy activity”.

For `CC(C)NC(=O)C(O)[C@H](CC1CCNC1=O)NC(=O)[C@H](Cc1ccccc1)NC(=O)OCc1ccccc1` (stereo partly drawn) [Inhibitor 5h], the “anti-norovirus activity” value [3] was “noteworthy activity”.

`CC(C)C[C@H](NC(=O)OCc1ccccc1)C(=O)N[C@@H](CC1CCNC1=O)C(O)c1nccs1` (stereo partly drawn) [Inhibitor 7b] was tested, and the “anti-norovirus activity” value [3] was “noteworthy activity”.

Compound `CC(C)C[C@H](NC(=O)OCc1ccccc1)C(=O)N[C@@H](CC1CCNC1=O)C(=O)c1ncco1` (stereo partly drawn) [Inhibitor 8a] has an EC50 ([3]; read-out: ED50 in the cell-based replicon system) of 0.9 µM.

Work on `CC(C)C[C@H](NC(=O)N1CCOCC1)C(=O)N[C@H](C=O)CC1CCNC1=O` (stereo partly drawn) [Inhibitor A] yielded an IC50 [4] of 7.2 µM.

`CC(C)C[C@H](NC(=O)CNC(=O)OCc1ccccc1)C(=O)N[C@H](C=O)CC1CCNC1=O` (stereo partly drawn) [Inhibitor E] was tested, and the IC50 [4] was 1.45 µM, the “inhibitory activity against Norwalk virus 3CL protease (in words)” value (from here on “inhibitory activity”) [5] was “improved potency, albeit not dramatically” and the EC50 [6] was 7.8 µM. For the same compound, the EC50 [7] was 20.3 µM and the “TD50, median toxic dose” value (HG23 cells) was > 320 µM.

With `CCCC[C@H](NC(=O)CNC(=O)OCc1ccccc1)C(=O)N[C@H](C=O)CC1CCNC1=O` (stereo partly drawn) [Inhibitor G] the IC50 [4] was 0.87 µM and the “inhibitory activity” value [5] was “sub-micromolar inhibitor”.

In the case of `CCC(C)[C@H](NC(=O)CNC(=O)OCc1ccccc1)C(=O)N[C@H](C=O)CC1CCNC1=O` (stereo partly drawn) [Inhibitor I], the “inhibitory activity” value [5] is reported as “detrimental to inhibitory activity”.

`CCOC(=O)/C=C/[C@H](C[C@@H]1CCNC1=O)NC(=O)[C@@H](CC(=O)[C@@H](NC(=O)c1cc(C)on1)C(C)C)Cc1ccc(F)cc1` [Rupintrivir] was tested, and the “activity against the coronavirus proteases compared to GC373 and GC376 (in words)” value [8] was “substantially less effective”, the “inhibition of replication of MNV-1 (in words)” value (MNV-1) was “did not inhibit the replication” and the “inhibition of replication of MHV (in words)” value (MHV) was “did not inhibit the replication”. The “inhibition of replication of FCV (in words)” value (FCV) was “did not inhibit the replication” and the “non-specific cytotoxicity: none shown up to this concentration” value [9] was > 500 µM.
